Reference: US12662479B2 (Foghorn Therapeutics Inc., priority 2020, dated 2026)

Tests used:
HiBit-BRM fusion protein = target: T1, HiBit-BRM fusion protein (Homo sapiens, UniProt P51531); assay: HiBiT-BRM cell-based degradation assay (Nano-Glo HiBiT Lytic Detection, 24 h); conditions: HeLa cells expressing HiBiT-BRM; for DC50: read-out: BRM HiBit Degradation IC50; for BRM HiBit Degradation Maximum measured: top dose 30 μM
T1 construct: expressed in transfected cells
Outline: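 Percent BRM loss was derived from HiBiT luminescence relative to DMSO-treated cells and cells given 2 μM of a known BRM/BRG1 degrader. Treatment lasted 24 h in HiBiT-BRM HeLa cells, with a top final concentration of 30 μM.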

[1] = target: T2, HiBit-BRG1 fusion protein (Homo sapiens, UniProt P51532); assay: HiBiT-BRG1 cell-based degradation assay (Nano-Glo HiBiT Lytic Detection, 24 h); conditions: HeLa cells expressing HiBit-BRG1 and LgBit; for DC50: read-out: BRG1 HiBit Degradation IC50; for Dmax: HeLa, top dose 30 μM, read-out: BRG1 HiBit Degradation Maximum measured
T2 construct: expressed in transfected cells
Outline: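 Degradation is scaled from DMSO-treated cells (0%) to cells given 2 μM of a known BRM/BRG1 degrader (100%). HeLa cells stably carrying HiBiT-BRG1 plus LgBiT (5000/well) were lysed with Nano-Glo HiBiT detection reagent, shaken 10 min at RT, and luminescence read.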

T1 sequence (P51531 whole entry, the tested form may be a part): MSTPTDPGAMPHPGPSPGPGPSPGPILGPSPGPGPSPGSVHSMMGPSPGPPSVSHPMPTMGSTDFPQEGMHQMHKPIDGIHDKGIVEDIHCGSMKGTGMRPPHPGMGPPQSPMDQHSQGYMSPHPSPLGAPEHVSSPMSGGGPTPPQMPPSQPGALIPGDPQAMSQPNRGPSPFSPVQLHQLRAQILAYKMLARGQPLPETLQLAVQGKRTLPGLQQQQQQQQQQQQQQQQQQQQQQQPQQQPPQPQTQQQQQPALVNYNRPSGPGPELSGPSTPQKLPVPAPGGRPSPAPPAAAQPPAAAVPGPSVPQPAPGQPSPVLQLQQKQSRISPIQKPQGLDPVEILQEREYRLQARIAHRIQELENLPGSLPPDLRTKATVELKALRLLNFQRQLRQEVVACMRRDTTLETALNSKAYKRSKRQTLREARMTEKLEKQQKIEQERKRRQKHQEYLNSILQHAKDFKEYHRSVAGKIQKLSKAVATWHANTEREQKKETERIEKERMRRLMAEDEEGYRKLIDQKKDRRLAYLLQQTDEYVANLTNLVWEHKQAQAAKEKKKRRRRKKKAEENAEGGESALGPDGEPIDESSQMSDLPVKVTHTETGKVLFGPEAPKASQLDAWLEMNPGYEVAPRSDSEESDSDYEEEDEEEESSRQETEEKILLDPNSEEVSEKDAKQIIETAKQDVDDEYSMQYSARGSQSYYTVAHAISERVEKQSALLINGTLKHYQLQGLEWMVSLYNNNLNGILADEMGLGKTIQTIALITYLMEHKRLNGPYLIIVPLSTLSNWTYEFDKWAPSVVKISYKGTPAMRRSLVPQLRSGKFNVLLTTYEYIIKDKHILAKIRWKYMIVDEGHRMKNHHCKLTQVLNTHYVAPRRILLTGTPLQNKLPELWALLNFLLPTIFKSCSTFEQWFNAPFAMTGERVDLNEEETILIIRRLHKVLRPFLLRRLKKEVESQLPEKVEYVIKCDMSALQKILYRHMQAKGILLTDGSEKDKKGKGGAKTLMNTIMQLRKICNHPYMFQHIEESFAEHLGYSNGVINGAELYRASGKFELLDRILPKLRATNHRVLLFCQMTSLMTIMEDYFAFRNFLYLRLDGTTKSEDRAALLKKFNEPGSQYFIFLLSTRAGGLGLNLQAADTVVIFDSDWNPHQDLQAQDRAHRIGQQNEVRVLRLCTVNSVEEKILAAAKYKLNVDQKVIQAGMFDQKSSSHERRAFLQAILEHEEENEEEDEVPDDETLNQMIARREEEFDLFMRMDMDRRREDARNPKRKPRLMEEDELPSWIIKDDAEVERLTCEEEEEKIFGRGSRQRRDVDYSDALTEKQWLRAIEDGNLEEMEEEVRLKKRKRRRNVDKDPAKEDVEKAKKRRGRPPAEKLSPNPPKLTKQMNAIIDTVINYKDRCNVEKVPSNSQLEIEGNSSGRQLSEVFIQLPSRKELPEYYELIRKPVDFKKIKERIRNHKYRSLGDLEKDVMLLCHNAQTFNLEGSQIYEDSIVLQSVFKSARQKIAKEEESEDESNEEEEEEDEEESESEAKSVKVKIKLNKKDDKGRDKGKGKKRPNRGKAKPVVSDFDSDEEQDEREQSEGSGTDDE
T2 sequence (P51532 whole entry, the tested form may be a part): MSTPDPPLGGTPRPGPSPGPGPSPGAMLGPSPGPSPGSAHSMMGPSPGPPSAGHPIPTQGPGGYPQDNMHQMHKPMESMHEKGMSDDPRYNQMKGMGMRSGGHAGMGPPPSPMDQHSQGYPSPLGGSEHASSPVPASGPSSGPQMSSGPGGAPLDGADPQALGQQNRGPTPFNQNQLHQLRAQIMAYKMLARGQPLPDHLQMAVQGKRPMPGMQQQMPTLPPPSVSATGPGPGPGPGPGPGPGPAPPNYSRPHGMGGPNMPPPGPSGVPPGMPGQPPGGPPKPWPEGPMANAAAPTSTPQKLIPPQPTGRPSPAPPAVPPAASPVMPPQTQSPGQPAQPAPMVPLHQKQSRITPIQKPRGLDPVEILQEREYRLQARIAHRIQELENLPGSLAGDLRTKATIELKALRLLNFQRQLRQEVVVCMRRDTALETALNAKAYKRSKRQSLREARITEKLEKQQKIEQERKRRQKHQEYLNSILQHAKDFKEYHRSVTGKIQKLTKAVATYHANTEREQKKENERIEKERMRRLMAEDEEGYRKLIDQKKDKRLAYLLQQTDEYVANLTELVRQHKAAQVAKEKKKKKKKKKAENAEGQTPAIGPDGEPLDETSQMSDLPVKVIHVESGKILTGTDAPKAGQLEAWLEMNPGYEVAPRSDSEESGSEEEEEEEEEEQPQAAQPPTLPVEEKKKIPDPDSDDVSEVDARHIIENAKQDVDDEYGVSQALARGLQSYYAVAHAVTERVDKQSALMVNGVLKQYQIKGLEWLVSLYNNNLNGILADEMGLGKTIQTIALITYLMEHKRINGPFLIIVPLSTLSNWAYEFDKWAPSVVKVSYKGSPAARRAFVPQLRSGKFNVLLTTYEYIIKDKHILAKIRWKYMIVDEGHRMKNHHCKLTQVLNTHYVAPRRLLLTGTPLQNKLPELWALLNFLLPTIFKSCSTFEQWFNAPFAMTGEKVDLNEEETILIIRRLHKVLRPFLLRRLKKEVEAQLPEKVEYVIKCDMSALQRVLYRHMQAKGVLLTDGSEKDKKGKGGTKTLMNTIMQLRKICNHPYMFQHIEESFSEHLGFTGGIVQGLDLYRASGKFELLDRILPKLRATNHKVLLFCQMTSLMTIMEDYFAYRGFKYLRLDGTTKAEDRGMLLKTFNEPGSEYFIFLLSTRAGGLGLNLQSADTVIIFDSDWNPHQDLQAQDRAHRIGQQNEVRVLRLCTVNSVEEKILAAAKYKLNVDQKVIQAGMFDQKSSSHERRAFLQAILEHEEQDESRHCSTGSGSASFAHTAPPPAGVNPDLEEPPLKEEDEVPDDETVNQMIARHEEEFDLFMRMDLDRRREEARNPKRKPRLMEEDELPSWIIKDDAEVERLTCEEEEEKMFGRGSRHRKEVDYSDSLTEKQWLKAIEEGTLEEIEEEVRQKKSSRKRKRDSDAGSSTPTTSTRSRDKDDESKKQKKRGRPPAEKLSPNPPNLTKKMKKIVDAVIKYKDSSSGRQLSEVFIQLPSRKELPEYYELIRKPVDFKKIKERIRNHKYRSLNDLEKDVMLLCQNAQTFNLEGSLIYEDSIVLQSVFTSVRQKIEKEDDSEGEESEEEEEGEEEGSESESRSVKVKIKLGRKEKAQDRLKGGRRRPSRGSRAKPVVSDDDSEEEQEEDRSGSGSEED

Row | DC50 (HiBit-BRM fusion protein) [µM] | BRM HiBit Degradation Maximum measured (HiBit-BRM fusion protein) | DC50 [1] [µM] | Dmax [1] [%] | Compound
1 | > 10 | C (‘C’ = Maximum degradation <50%) | > 10 | < 50 | CS(=O)(=O)n1ccc(C(=O)N[C@@H](CCOCCCC(=O)NCCOCc2cccc(COCCOc3ccc4c(c3)C(=O)N(C3CCC(=O)NC3=O)C4=O)c2)C(=O)Nc2nc(-c3ccccc3)cs2)c1 (stereo partly drawn) [Compound 261, (2S)-4-(3-[[2-([3-[(2-[[2-(2,6-dioxopiperidin-3-yl)-1,3-dioxoisoindol-5-yl]oxy]ethoxy)methyl]phenyl]methoxy)ethyl]carbamoyl]propoxy)-2-[(1-methanesulfonylpyrrol-3-yl)formamido]-N-(4-phenyl-1,3-thiazol-2-yl)butanamide]
2 | > 10 | C (‘C’ = Maximum degradation <50%) | > 10 | < 50 | Cc1ncsc1-c1ccc(CNC(=O)[C@@H]2C[C@@H](O)CN2C(=O)[C@@H](NC(=O)CCCCC(=O)NCCCC[C@H](NC(=O)c2ccn(S(C)(=O)=O)c2)C(=O)Nc2nc(-c3ccccc3)cs2)C(C)(C)C)cc1 [Compound 264, N-[(2S)-1-[(2S,4R)-4-hydroxy-2-([[4-(4-methyl-1,3-thiazol-5-yl)phenyl]methyl]carbamoyl)pyrrolidin-1-yl]-3,3-dimethyl-1-oxobutan-2-yl]-N-[(5S)-5-[(1-methanesulfonylpyrrol-3-yl)formamido]-5-[(4-phenyl-1,3-thiazol-2-yl)carbamoyl]pentyl]hexanediamide]
3 | > 10 | C (‘C’ = Maximum degradation <50%) | > 10 | < 50 | Cc1ncsc1-c1ccc(CNC(=O)[C@@H]2C[C@@H](O)CN2C(=O)[C@@H](NC(=O)CCCCCCCCCCC(=O)NCCCC[C@H](NC(=O)c2ccn(S(C)(=O)=O)c2)C(=O)Nc2nc(-c3ccccc3)cs2)C(C)(C)C)cc1 [Compound 265]
4 | > 10 | C (‘C’ = Maximum degradation <50%) | > 10 | < 50 | Cc1ncsc1-c1ccc(CNC(=O)[C@@H]2C[C@@H](O)CN2C(=O)[C@@H](NC(=O)CCCCCCC(=O)NCCCC[C@H](NC(=O)c2ccn(S(C)(=O)=O)c2)C(=O)Nc2nc(-c3ccccc3)cs2)C(C)(C)C)cc1 [Compound 266, N′-[(2S)-1-[(2S,4R)-4-hydroxy-2-([[4-(4-methyl-1,3-thiazol-5-yl)phenyl]methyl]carbamoyl)pyrrolidin-1-yl]-3,3-dimethyl-1-oxobutan-2-yl]-N-[(5S)-5-[(1-methanesulfonylpyrrol-3-yl)formamido]-5-[(4-phenyl-1,3-thiazol-2-yl)carbamoyl]pentyl]octanediamide]

Row | Compound | DC50 (HiBit-BRM fusion protein) [µM] | BRM HiBit Degradation Maximum measured (HiBit-BRM fusion protein) | DC50 [1] [µM] | Dmax [1] [%]
5 | CS(=O)(=O)n1ccc(C(=O)N[C@@H](CCOCCCC(=O)N2CCC3(CC2)CC(Oc2ccc4c(c2)C(=O)N(C2CCC(=O)NC2=O)C4=O)C3)C(=O)Nc2nc(-c3ccccc3)cs2)c1 (stereo partly drawn) [Compound 262, (2S)-4-[4-(2-[[2-(2,6-dioxopiperidin-3-yl)-1,3-dioxoisoindol-5-yl]oxy]-7-azaspiro[3.5]nonan-7-yl)-4-oxobutoxy]-2-[(1-methanesulfonylpyrrol-3-yl)formamido]-N-(4-phenyl-1,3-thiazol-2-yl)butanamide] | > 10 | C (‘C’ = Maximum degradation <50%) | > 10 | < 50
6 | CS(=O)(=O)n1ccc(C(=O)N[C@@H](CCOCCCC(=O)N2CCN(CCCC#Cc3ccc4c(c3)C(=O)N(C3CCC(=O)NC3=O)C4=O)CC2)C(=O)Nc2nc(-c3ccccc3)cs2)c1 (stereo partly drawn) [Compound 263, (2S)-4-[4-(4-[5-[2-(2,6-dioxopiperidin-3-yl)-1,3-dioxoisoindol-5-yl]pent-4-yn-1-yl]piperazin-1-yl)-4-oxobutoxy]-2-[(1-methanesulfonylpyrrol-3-yl)formamido]-N-(4-phenyl-1,3-thiazol-2-yl)butanamide; formic acid] | > 10 | C (‘C’ = Maximum degradation <50%) | > 10 | < 50
